biological target: T1, Muscarinic acetylcholine receptor M2 (Homo sapiens, UniProt P08172); assay: Binding affinity against cloned human muscarinic acetylcholine receptor M2.
T1 sequence (P08172 whole entry): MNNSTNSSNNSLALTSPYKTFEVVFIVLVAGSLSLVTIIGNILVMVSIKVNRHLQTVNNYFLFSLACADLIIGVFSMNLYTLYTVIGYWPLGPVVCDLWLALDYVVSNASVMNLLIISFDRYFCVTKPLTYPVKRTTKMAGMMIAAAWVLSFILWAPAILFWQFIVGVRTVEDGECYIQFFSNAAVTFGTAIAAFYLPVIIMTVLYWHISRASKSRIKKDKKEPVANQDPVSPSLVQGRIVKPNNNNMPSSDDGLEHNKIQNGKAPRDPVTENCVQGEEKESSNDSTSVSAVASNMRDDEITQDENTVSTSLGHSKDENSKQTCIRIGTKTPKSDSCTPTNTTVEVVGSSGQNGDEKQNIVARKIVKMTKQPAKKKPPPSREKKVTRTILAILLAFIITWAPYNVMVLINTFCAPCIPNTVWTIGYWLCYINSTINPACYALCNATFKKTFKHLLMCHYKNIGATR

| SMILES | Ki [nM] |
| --- | --- |
| Cc1ccccc1C(=O)N1CCC(N2CCC(C3(c4ccc(C(=O)NC(C)C)cc4)OCCO3)CC2)CC1 | 9 |
| CC(C)NC(=O)c1ccc(CC2CCN(C3CCN(C(=O)c4ccc5[nH]ccc5c4)CC3)CC2)cc1 | 5 |
| CC(C)NC(=O)c1ccc(CC2CCN(C3CCN(C(=O)c4cccc5[nH]ccc45)CC3)CC2)cc1 | 1.6 |
| Cc1cccc(C(=O)N2CCC(N3CCC(C4(c5ccc(C(=O)NC(C)C)cc5)OCCO4)CC3)CC2)c1N | 2.7 |
| Cc1ccccc1C(=O)N1CCC(N2CCC(Cc3ccc(C(=O)NC(C)C)cc3)CC2)CC1 | 7 |
| Cc1cccc(C(=O)N2CCC(N3CCC(Cc4ccc(C(=O)NC(C)C)cc4)CC3)CC2)c1N | 9 |
| CC(C)NC(=O)c1ccc(CC2CCN(C3CCN(C(=O)c4ccccc4N)CC3)CC2)cc1 | 78 |
| CC(C)NC(=O)c1ccc(CC2CCN(C3CCN(C(=O)c4ccccc4Cl)CC3)CC2)cc1 | 12 |
| CC(C)NC(=O)c1ccc(C2(C3CCN(C4CCN(C(=O)c5ccc(F)c6ccccc56)CC4)CC3)OCCO2)cc1 | 2.4 |
| Cc1c(N)cccc1C(=O)N1CCC(N2CCC(Cc3ccc(C(=O)NC(C)C)cc3)CC2)CC1 | 1.6 |
| Cc1c(N)cccc1C(=O)N1CCC(N2CCC(C3(c4ccc(C(=O)NC(C)C)cc4)OCCO3)CC2)CC1 | 1.9 |
| CC(C)NC(=O)c1ccc(C2(C3CCN(C4CCN(C(=O)c5ccccc5Cl)CC4)CC3)OCCO2)cc1 | 35 |
| Cc1ccccc1C(=O)N1CCC(N2CCC(Cc3ccc(C(=O)Nc4ccccc4)cc3)CC2)CC1 | 122 |
| Cc1ccccc1C(=O)N1CCC(N2CCC(Cc3ccc(C(=O)NC(C)(C)C)cc3)CC2)CC1 | 106 |
| CC(C)NC(=O)c1ccc(C2(C3CCN(C4CCN(C(=O)c5cccc6[nH]ccc56)CC4)CC3)OCCO2)cc1 | 1.1 |
| CC(C)NC(=O)c1ccc(CC2CCN(C3CCN(C(=O)c4cccc5nc[nH]c45)CC3)CC2)cc1 | 27 |

Other lines, results leading:

| Ki [nM] | SMILES |
| --- | --- |
| 18 | CC(C)(C)NC(=O)c1ccc(CC2CCN(C3CCN(C(=O)c4ccc(F)c5ccccc45)CC3)CC2)cc1 |
| 104 | O=C(Nc1ccccc1)c1ccc(CC2CCN(C3CCN(C(=O)c4ccc(F)c5ccccc45)CC3)CC2)cc1 |
| 6 | CC(C)NC(=O)c1ccc(CC2CCN(C3CCN(C(=O)c4c[nH]c5ccccc45)CC3)CC2)cc1 |
| 15 | Cc1ccccc1C(=O)N1CCC(N2CCC(Cc3ccc(C(=O)NC4CCCCC4)cc3)CC2)CC1 |
| 5 | CC(C)NC(=O)c1ccc(CC2CCN(C3CCN(C(=O)c4cccc5c(F)cc(F)cc45)CC3)CC2)cc1 |
| 2.1 | CC(C)NC(=O)c1ccc(CC2CCN(C3CCN(C(=O)c4ccc(F)c5ccccc45)CC3)CC2)cc1 |
| 9 | CC(C)NC(=O)c1ccc(CC2CCN(C3CCN(C(=O)c4ccc(F)c5c(F)cccc45)CC3)CC2)cc1 |
| 17 | CC(C)S(=O)(=O)c1ccc(CC2CCN(C3CCN(C(=O)c4ccc(F)c5ccccc45)CC3)CC2)cc1 |
| 1300 | O=C(NC1CCCCC1)c1ccc(CC2CCN(C3CCN(C(=O)c4ccc(F)c5ccccc45)CC3)CC2)cc1 |
| 40 | CC(C)NC(=O)c1ccc(CC2CCN(C3CCN(C(=O)c4ccnc5ccccc45)CC3)CC2)cc1 |

From ChEMBL document CHEMBL1147502, “Isopropyl amide derivatives of potent and selective muscarinic M2 receptor antagonists” (Bioorg Med Chem Lett, 2004)
